# Data reported in the supplement of paper PMC13380429.
# Tests used:
# Details in all cases: 72 h
# Caco-2 [1] = experiment: cell viability relative to DMSO; higher = less toxic
# Calu-3 [2] = experiment: as above
# HepG2 [3] = experiment: as above
# U2OS [4] = experiment: as above
# Vero E6 [5] = experiment: as above
# Caco-2 [6] = experiment: relative viability EC50 (midpoint between 100% and the lowest measured viability); higher = less toxic
# Calu-3 [7] = experiment: as above
# HepG2 [8] = experiment: as above
# Vero E6 [9] = experiment: as above
# Caco-2 [10] = experiment: drug sensitivity score (DSS) for viability; higher = more toxic; extreme values may be limits of the assay
# Calu-3 [11] = experiment: as above
# HepG2 [12] = experiment: as above
# U2OS [13] = experiment: as above
# Vero E6 [14] = experiment: as above
# U2OS [15] = experiment: relative viability EC50 (midpoint between 100% and the lowest measured viability); higher = less toxic
SMILES,cell viability (Caco-2 [1]; 1 nM) [%],cell viability (Caco-2 [1]; 10 nM) [%],cell viability (Caco-2 [1]; 100 nM) [%],cell viability (Caco-2 [1]; 1000 nM) [%],cell viability (Caco-2 [1]; 10000 nM) [%],cell viability (Calu-3 [2]; 1 nM) [%],cell viability (Calu-3 [2]; 10 nM) [%],cell viability (Calu-3 [2]; 100 nM) [%],cell viability (Calu-3 [2]; 1000 nM) [%],cell viability (Calu-3 [2]; 10000 nM) [%],cell viability (HepG2 [3]; 1 nM) [%],cell viability (HepG2 [3]; 10 nM) [%],cell viability (HepG2 [3]; 100 nM) [%],cell viability (HepG2 [3]; 1000 nM) [%],cell viability (HepG2 [3]; 10000 nM) [%],cell viability (U2OS [4]; 1 nM) [%],cell viability (U2OS [4]; 10 nM) [%],cell viability (U2OS [4]; 100 nM) [%],cell viability (U2OS [4]; 1000 nM) [%],cell viability (U2OS [4]; 10000 nM) [%],cell viability (Vero E6 [5]; 1 nM) [%],cell viability (Vero E6 [5]; 10 nM) [%],cell viability (Vero E6 [5]; 100 nM) [%],cell viability (Vero E6 [5]; 1000 nM) [%],cell viability (Vero E6 [5]; 10000 nM) [%],relative viability EC50 (Caco-2 [6]) [µM],relative viability EC50 (Calu-3 [7]) [µM],relative viability EC50 (HepG2 [8]) [µM],relative viability EC50 (Vero E6 [9]) [µM],drug sensitivity score (Caco-2 [10]),drug sensitivity score (Calu-3 [11]),drug sensitivity score (HepG2 [12]),drug sensitivity score (U2OS [13]),drug sensitivity score (Vero E6 [14]),relative viability EC50 (U2OS [15]) [µM]
C[C@@H]1CC(=O)NN=C1c1ccc(NN=C(C#N)C#N)cc1 [levosimendan],97.2,113,98.9,96,94.6,93.7,95.8,100,97.3,109,101,102,98.5,99.6,88.4,99,96.8,101,96.2,71.3,95.6,102,85.7,103,99,> 10,> 10,> 10,> 10,0,0,0,1.8,0,
N[C@@H](C(=O)N[C@@H]1C(=O)N2C(C(=O)O)=C(Cl)CC[C@H]12)c1ccccc1 [loracarbef],107,104,95.9,91.5,98.2,88.5,102,96.6,102,99,100,100,96.3,92,97.6,93.6,102,95.7,100,101,,,,,,> 10,> 10,> 10,,0,0,0,0,,> 10
CCCC[C@H]1C(=O)N(c2ccccc2)N(c2ccc(O)cc2)C1=O [oxyphenbutazone],99.6,89.2,96.7,94.9,44.2,91.2,104,103,110,97.6,103,102,105,94.2,7.9,101,95.8,100,96,9.3,105,107,109,101,50.3,2.41,> 10,2.66,,3.8,0,6,5.6,2.5,2.83
C[n+]1ccccc1C=NO [pralidoxime],103,94.5,105,99.8,95,96.6,93.1,93.8,91.3,110,106,115,102,101,89.7,100,97.4,103,98.4,103,,,,,,> 10,> 10,> 10,,0,0,0,0,,> 10
Cc1c(C)c2c(c(C)c1OC(=O)CCC(=O)OCCO)CC[C@@](C)(CCC[C@H](C)CCC[C@H](C)CCCC(C)C)O2 [tocofersolan],96.8,105,106,101,90.2,105,101,105,104,95.2,98.4,99.8,95,103,100,102,105,99,98.4,72.9,97.8,97.9,95.9,94.9,99.3,> 10,> 10,> 10,> 10,0,0,0,1.3,0,
"Cc1cc(C)cc(C(=O)O[C@H]2C[C@H]3CC[C@@H](C2)N3C)c1 [tropanyl-3,5-dimethylbenzoate]",104,97.6,92.7,102,94.9,99.7,107,98.2,106,93.3,99.5,106,102,92.7,93.2,,,,,,91.8,94.3,96.3,91.7,108,> 10,> 10,> 10,> 10,0,0,0,,0,
CC(=O)N[C@H]1[C@H]([C@H](O)[C@H](O)CO)OC(C(=O)O)=C[C@@H]1NC(=N)N [zanamivir],96.4,90.9,101,101,106,93.8,92,93.2,91.8,95.1,93.4,95.5,95.7,110,107,,,,,,94.6,98.4,90.6,98.7,109,> 10,> 10,> 10,> 10,0,0,0,,0,
